From patent US20060069132A1, “Azolecarboxamide herbicides” (priority 2004, published 2006)

Columns and labels:
barnyardgrass = assay: Test A pre-/postemergence herbicide test; type: in vivo, Echinochloa crus-galli
Procedure, shortened: (§1)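 Sandy loam soil given preemergence directed spray; plants at 2 to 10 cm, one- to two-leaf stage, sprayed to runoff postemergence, compounds in non-phytotoxic solvent with surfactant. Injury rated visually versus untreated controls after about ten greenhouse days, 0 (no effect) to 100 (complete control); dash means not tested.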

morningglory [1] = assay: Test A pre-/postemergence herbicide test; type: in vivo, Ipomoea spp.
Procedure, shortened: as §1

redroot pigweed = assay: Test A pre-/postemergence herbicide test; type: in vivo, Amaranthus retroflexus
Procedure, shortened: as §1

bermudagrass = assay: Test C pre-/postemergence herbicide test; type: in vivo, Cynodon dactylon; details: for Plant response rating, Bermudagrass: preemergence
Procedure, shortened: (§2)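 Preemergence: seeds planted and treated with compound in non-phytotoxic solvent with surfactant; postemergence: plants at 2 to 18 cm (1- to 4-leaf stage) sprayed likewise. Kept in greenhouse 12 to 14 days, then visually rated against controls, 0 (no effect) to 100 (complete control).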

large crabgrass = assay: Test C pre-/postemergence herbicide test; type: in vivo, Digitaria sanguinalis; details: preemergence
Procedure, shortened: as §2

giant foxtail = assay: Test C pre-/postemergence herbicide test; type: in vivo, Setaria faberi; details: preemergence
Procedure, shortened: as §2

lambsquarters = assay: Test C pre-/postemergence herbicide test; type: in vivo, Chenopodium album; details: preemergence
Procedure, shortened: as §2

morningglory [2] = assay: Test C pre-/postemergence herbicide test; type: in vivo, Ipomoea coccinea; parameters: key to Plant response rating, Morningglory: 0 = no effect, 100 = complete control; details: preemergence
Procedure, shortened: as §2

common ragweed = assay: Test C pre-/postemergence herbicide test; type: in vivo, Ambrosia elatior; parameters: key to Plant response rating, Ragweed: 0 = no effect, 100 = complete control; details: preemergence
Procedure, shortened: as §2

velvetleaf = assay: Test C pre-/postemergence herbicide test; type: in vivo, Abutilon theophrasti; details: preemergence
Procedure, shortened: as §2

rice = assay: Test C flooded paddy test; type: in vivo, Oryza sativa
Procedure, shortened: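 Postemergence sprays applied to plants 2 to 18 cm tall (1- to 4-leaf stage); paddy species grown to 2-leaf stage under flooding. After 12 to 14 days in greenhouse, visual rating versus untreated controls on 0–100 scale (0 no effect, 100 complete control).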

[3] = system: smallflower umbrella sedge; assay: Test C flooded paddy test; type: in vivo, Cyperus difformis
[4] = Postemergence, 500 g ai/ha, 0 to 100 scale, 0 no effect, 100 complete control
[5] = Postemergence, 2000 g ai/ha, 0 to 100 scale, 0 no effect, 100 complete control
[6] = Preemergence, 2000 g ai/ha, visual rating, 0 to 100 scale (0 no effect, 100 complete control)
[7] = preemergence, 500 g ai/ha, visual injury, 0 to 100 scale (0 no effect, 100 complete control)
[8] = 125 g ai/ha, scale 0 (no effect) to 100 (complete control), visual, 12 to 14 days
[9] = 500 g ai/ha, scale 0 to 100 (0 no effect, 100 complete control), visual, 12 to 14 days
[10] = 62 g ai/ha, scale 0 to 100 (0 no effect, 100 complete control)
[11] = 125 g ai/ha, scale 0 to 100 (0 no effect, 100 complete control)
[12] = 250 g ai/ha, scale of 0 to 100, 0 is no effect, 100 is complete control
[13] = 500 g ai/ha, visual rating after 12 to 14 days, scale 0 to 100 (0 no effect, 100 complete control)

## CCNC(=O)c1cccc(NC(=O)c2sc(C(C)(C)C)nc2CC)c1 [Compound 210]
barnyardgrass; [4]
  Barnyardgrass plant response rating: 80
barnyardgrass; [5]
  Plant response rating, Barnyardgrass: 80
barnyardgrass; [6]
  Barnyardgrass plant response rating: 90
barnyardgrass; [7]
  Barnyardgrass plant response rating: 85
Morningglory [1]; [4]
  Morningglory plant response rating: 20
Morningglory [1]; [5]
  Plant response rating, Morningglory: 25
Morningglory [1]; [6]
  Morningglory plant response rating: 100
Morningglory [1]; [7]
  Morningglory plant response rating: 55
Redroot pigweed; [4]
  Pigweed plant response rating: 60
Redroot pigweed; [5]
  Plant response rating, Pigweed: 80
Redroot pigweed; [6]
  Pigweed plant response rating: 100
Redroot pigweed; [7]
  Pigweed plant response rating: 100
bermudagrass; 62 g ai/ha, scale 0 to 100, 0 no effect, 100 complete control
  Plant response rating, Bermudagrass: 80
bermudagrass; [8]
  Plant response rating, Bermudagrass: 80
bermudagrass; 250 g ai/ha, scale 0-100
  Plant response rating, Bermudagrass: 100
bermudagrass; Preemergence, 500 g ai/ha, scale 0 to 100, 0 no effect, 100 complete control
  Bermudagrass plant response rating: 100
Large crabgrass; 62 g ai/ha, scale 0 to 100
  Plant response rating, Crabgrass, Large: 80
Large crabgrass; [8]
  Plant response rating, Crabgrass, Large: 80
Large crabgrass; 250 g ai/ha, scale 0-100
  Plant response rating, Crabgrass, Large: 95
Large crabgrass; [9]
  Plant response rating, Crabgrass, Large: 100
Giant foxtail; 62 g ai/ha, scale 0 to 100
  Plant response rating, Foxtail, Giant: 0
Giant foxtail; [8]
  Plant response rating, Foxtail, Giant: 10
Giant foxtail; 250 g ai/ha, scale 0-100
  Plant response rating, Foxtail, Giant: 10
Giant foxtail; [9]
  Plant response rating, Foxtail, Giant: 60
lambsquarters; 62 g ai/ha, scale 0 to 100
  Plant response rating, Lambsquarters: 100
lambsquarters; [8]
  Plant response rating, Lambsquarters: 100
lambsquarters; 250 g ai/ha, scale 0-100
  Plant response rating, Lambsquarters: 100
lambsquarters; [9]
  Plant response rating, Lambsquarters: 100
Morningglory [2]; 62 g ai/ha, scale 0 to 100
  Plant response rating, Morningglory: 0
Morningglory [2]; [8]
  Plant response rating, Morningglory: 0
Morningglory [2]; 250 g ai/ha, scale 0-100
  Plant response rating, Morningglory: 5
Morningglory [2]; [9]
  Plant response rating, Morningglory: 10
Common ragweed; 62 g ai/ha, scale 0 to 100
  Plant response rating, Ragweed: 0
Common ragweed; [8]
  Plant response rating, Ragweed: 0
Common ragweed; 250 g ai/ha, scale 0-100
  Plant response rating, Ragweed: 90
Common ragweed; [9]
  Plant response rating, Ragweed: 90
velvetleaf; 62 g ai/ha, scale 0 to 100
  Plant response rating, Velvetleaf: 0
velvetleaf; [8]
  Plant response rating, Velvetleaf: 0
velvetleaf; 250 g ai/ha, scale 0-100
  Plant response rating, Velvetleaf: 60
velvetleaf; [9]
  Plant response rating, Velvetleaf: 80
rice; [10]
  Rice plant response rating: 35
rice; [11]
  Rice plant response rating: 55
rice; [12]
  Rice plant response rating: 75
rice; [13]
  Plant response rating, Rice: 75
[3]; [10]
  Sedge, Umbrella plant response rating: 75
[3]; [11]
  Sedge, Umbrella plant response rating: 80
[3]; [12]
  Sedge, Umbrella plant response rating: 85
[3]; [13]
  Plant response rating, Sedge, Umbrella: 90
